Reference: ChEMBL document CHEMBL5316371, “Paraconulones A-G: Eremophilane Sesquiterpenoids from the Marine-Derived Fungus Paraconiothyrium sporulosum DL-16” (J Nat Prod, 2023)

Columns and labels:
[1] = Cytotoxicity against mouse BV-2 cells assessed as reduction in cell growth; assay type: toxicity, cell-based
[2] = test system: BV-2; experiment: Antiinflammatory activity against mouse BV-2 cells assessed as reduction in LPS-induced NO production incubated for 24 hrs by Griess reagent based assay; assay type: functional, cell-based; details: BV-2, 24 h

SMILES: C=C(C)[C@]1(O)C[C@@]2(C)C(=C[C@H]1O)C=CC(=O)[C@@H]2C
- CC50 [1]: > 50 µM
- IC50 [2]: 98 µM

SMILES: C[C@H](CO)C1=C[C@@]2(C)C(=CC1=O)C=CC(=O)[C@H]2C
- CC50 [1]: > 50 µM
- IC50 [2]: 40 µM

SMILES: CO[C@]12C=C3C=CC(=O)[C@H](C)[C@@]3(C)C[C@@]1(O)[C@H](C)CO2
- CC50 [1]: > 50 µM
- IC50 [2]: 4.6 µM

SMILES: CC(=O)OC[C@@H](C)[C@]1(O)C[C@@]2(C)C(=CC1=O)[C@@H]1[C@H](C(=O)[C@@H]2C)[C@H]2C(=O)[C@H](C)[C@@]3(C)C[C@@](O)([C@H](C)COC(C)=O)C(=O)C=C3[C@H]21
- CC50 [1]: > 50 µM
- IC50 [2]: 2.8 µM

SMILES: CO[C@]12C=C3C=C(C4=CC5=C[C@]6(OC)OC[C@@H](C)[C@]6(O)C[C@]5(C)[C@@H](C)C4=O)C(=O)[C@@H](C)[C@@]3(C)C[C@@]1(O)[C@H](C)CO2
- CC50 [1]: > 50 µM
- IC50 [2]: 6.9 µM

SMILES: CC(=O)OC[C@@H](C)[C@]1(O)C[C@@]2(C)C(=CC1=O)C=CC(=O)[C@H]2C
- CC50 [1]: > 50 µM
- IC50 [2]: 7.7 µM

SMILES: CC1=C(C)[C@]2(C=CC1=O)C[C@@]1(O)[C@H](C)CO[C@@]1(O)C2
- CC50 [1]: > 50 µM
- IC50 [2]: 8.1 µM

SMILES: C[C@H](CO)[C@@H]1C[C@@]2(C)C(=CC1=O)C=CC(=O)[C@H]2C
- CC50 [1]: > 50 µM
- IC50 [2]: 8.1 µM

SMILES: COc1cc(/C=C/C(=O)CC(=O)/C=C/c2ccc(O)c(OC)c2)ccc1O [CURCUMIN]
- CC50 [1]: > 50 µM
- IC50 [2]: 8.6 µM

SMILES: CO[C@]12C=C3C=CC(=O)[C@@H](C)[C@@]3(C)C[C@@]1(O)[C@H](C)CO2 [MICROSPHAEROPSISIN]
- CC50 [1]: > 50 µM
- IC50 [2]: 80 µM
